Measurements reported in patent US11065296B2, “Antimicrobial peptide, its analog and use” (City University of Hong Kong, priority 2018, dated 2021).
Peptide text beside a SMILES is read from it.

Tests used:
CpxR [1] = experiment: Quantitative real-time PCR; assay type: cell-based; settings: E. coli
Description: (§1) Each group has 6 biological replicates. […] Gene-specific primers were designed with Primer-BLAST (NCBI).

[2] = tested on: Klebsiella pneumoniae (NDM-1) ATCC BAA-2470; assay type: cell-based
Method: (§5) MIC denotes the lowest concentration of an antimicrobial agent that can inhibit the growth of bacteria after overnight incubation.
(§6) Bacteria were grown in their respective media (Table 2 above) overnight at 37° C. or room temperature with constant shaking and then diluted to 10^6 CFU/ml in their respective medium. Stock solutions of peptides at 0.68 mM were prepared in distilled water. Bacteria and peptide were incubated (50 μl: 50 μl) to make the final peptide concentrations (0.68, 3.4, 6.8, 13.7, 34.1, 68.3, 136.5 μM) in a 96-microtitre plate and incubated for 24 h with constant shaking. […] Absorbance at 600 nm was detected every 3 h up to 24 h to obtain the growth curves. The minimal inhibition concentration (MIC) was defined as the lowest concentration of an antimicrobial agent that could inhibit the growth of bacteria after overnight incubation.

CpxA = settings: E. tarda, 6.8 μM, 1 hr
Method: FIG. 9B is a plot showing the relative expression levels of CpxA, CpxR and RpoE in E. tarda upon treatment with Peptide A for 60 min at 6.8 μM. Results are expressed as 2^(−Delta Delta C (T)). FIG. 9C is a plot showing the CpxR gene expression in E. tarda after treatment with Peptide A (6.8 μM), Piscidin (7.5 μM), Ampicillin (143 μM) and Peptide A+Ampicillin (3.4 μM; 71.5 μM) for 1 hour. Results are expressed as 2^(−Delta Delta C (T)). […] Results expressed as log 2 fold change normalized with control group.
E. tarda or E. coli were treated with AMP or antibiotics or not treated as the control at inhibitory or subinhibitory for 1 hr. After that, the total RNA of the cells were collected by using the RNAprep pure cell/bacteria kit (TIANGEN), then reverse-transcribed into cDNA by using the One-Step FastQuant RT reagent kit with gDNase (TIANGEN). 18S ribosomal RNA (18S) was used as reference gene for qPCR normalization. Each group has 6 biological replicates. In brief, quantitative polymerase chain reaction (qPCR) assays were performed by using fluorescent dye powder SYBR Green PCR Master Mix and the ABI 7500 System. Gene-specific primers were designed with Primer-BLAST (NCBI). […] The relative expression levels (fold change) of the tested genes were calculated by using the relative expression based on the 2^(−Delta Delta C (T)) Method.

[3] = tested on: Staphylococcus epidermidis ATCC 12228; assay type: cell-based
Method: as §5, §6

[4] = tested on: Aeromonas hydrophila ATCC 49140; assay type: cell-based
Method: as §5, §6

E. coli PQ37 = experiment: SOS induction (chromotest); assay type: cell-based; settings: E. coli PQ37, 120 min; Peptide A 3.4 μM, Piscidin 3.77 μM
Method: (§2) Results are expressed as 2^(−Delta Delta C (T)). […] Results are expressed as 2^(−Delta Delta C (T)).
E. coli PQ37 (Genotype: Sfi A and Lac Z fusion, lac Z) was cultured in lysogeny broth (LB) that contained 57.2 μM of ampicillin overnight (37° C.) and subcultured through 20 dilutions on another day so that OD600 equals to 0.2-0.4. PQ37 was incubated in 0.3 ml AMP (3.4 μM) or Piscidin ([…], 3.77 μM) for 2 hours and then re-suspended in the same volume of Z-buffer (Na2HPO4.7H2O 16.1 g/l, NaH2PO4.2H2O 6.24 g/L, KCl 0.75 g/L, MgSO4.7H2O 0.246 g/L and b-mercaptoethanol 0.3% (v/v)) for carrying out a β-galactosidase assay (β-ga) and alkaline phosphatase assay (ap), respectively. The bacteria were lysed with 0.1 ml of 0.1% SDS and 0.15 ml of chloroform. For the β-ga assay, the reaction was started by adding 0.6 ml of ortho-Nitrophenyl-β-galactoside (ONPG; Catalog number 34055, ThermoFisher Scientific) for color development and then stopped with the addition of 2 ml of 1 M NaCO3 solution. For ap acsay, the reaction was started by adding 0.6 ml of para-Nitrophenylphosphate (PNPP; Catalog number 34045, ThermoFisher Scientific) for color development which was then terminated by the addition of 1 ml of 2 M HCl solution and 1 ml of 2 M Tri-HCl to restore the colour. The absorbance was read at 420 nm against a blank without bacteria. The induction factor (IF) was calculated as the ratio R(x)/R(0) (R(x)=β-g/ap determined for the tested peptide; R(0)=β-g/ap determined for the LB). Furacin (antibiotic) and Piscidin were chosen as the controls. Each experiment was performed in triplicate.

E. tarda = experiment: Host resistance assay, Experiment One: co-injection of bacteria and peptide; assay type: in vivo, Medaka; settings: co-injected with Peptide A (0.68 mM, 1 μl) and E. tarda
Method: (§3) FIG. 11A is a plot showing the effect of Peptide A on viability of cultured mammalian cells, incubated for 48 h in the presence of Peptide A at different concentrations (μg/ml), as determined by MTT assay. Cell viability represented as peptide treated cell numbers over medium-only control. Statistically significant difference as compared to controls (*: p<0.05, **: p<0.01, n=4). FIG. 11B is a plot showing the ability of Peptide A to protect medaka from lethal challenge of E. tarda ([…]). Medaka was injected with 1 μl of Peptide A (0.68 mM), with 1 μl of E. tarda (10^7 CFU/ml) and Peptide A (0.68 mM) mixture, or with E. tarda alone (1 μl of E. tarda:10^7 CFU/ml). […] 20 fish per group. Log-rank (Mantel-Cox) test was applied for the comparison of survival curves (**: p<0.01).
(§4) The efficacy of the synthesized AMP to protect medaka against infection was characterized using host resistance assays with intraperitoneal (i.p.) injection of bacteria using a micro-injection machine (PV820 Pneumatic PicoPump). […] The number of dead fish was counted on a daily basis until two weeks after the injections.

E. cloacae BAA-1143 = assay type: cell-based
Method: as §5, §6

[5] = Toxicity in adult Medaka fish, intraperitoneal injection; assay type: in vivo; settings: intraperitoneally injected with 1 μg, up to 14 days
Method: as §3, §4

[6] = tested on: Multidrug-resistant S. aureus ATCC BAA-44; assay type: cell-based
Method: as §5, §6

[7] = tested on: Methicillin-resistant S. aureus ATCC BAA-41; assay type: cell-based
Method: as §5, §6

Pseudomonas aeruginosa A = assay type: cell-based
RpoE = experiment: Quantitative real-time PCR; assay type: cell-based; settings: E. tarda, 6.8 μM, 1 hr
Description: as §2, §1

CpxR [8] = experiment: Quantitative real-time PCR; assay type: cell-based; settings: E. tarda
Description: as §2, §1

[9] = tested on: Escherichia coli BL21 (DE3); assay type: cell-based
Method: as §5, §6

[10] = tested on: Streptococcus pyogenes ATCC 14289; assay type: cell-based
Method: as §5, §6

[11] = tested on: Acinetobacter baumannii ATCC 19606; assay type: cell-based
Method: as §5, §6

For `CC[C@H](C)[C@H](N)C(=O)N[C@@H](CCCNC(=N)N)C(=O)N[C@H](C(=O)N[C@H](C(=O)N[C@@H](CC(C)C)C(=O)N[C@@H](CCCNC(=N)N)C(=O)N[C@@H](C)C(=O)N[C@@H](CCC(N)=O)C(=O)NCC(=O)N[C@@H](C)C(=O)N[C@@H](CC(C)C)C(=O)N[C@@H](CCCCN)C(=O)N[C@H](C(=O)O)[C@@H](C)CC)[C@@H](C)CC)[C@@H](C)CC` [Peptide A, IRIILRAQGALKI] (H-IRIILRAQGALKI-OH; N-terminus and C-terminus assumed), the CpxR expression (CpxR [1]) was “inhibition of CpxR”, the MICs [2] was 21.8 µM and the “CpxA mRNA expression” value (CpxA) was “remains unaffected”. The MICs [3] was 2.7 µM, the MICs [4] was 13.7 µM and the “SOS response (induction factor)” value (E. coli PQ37) was “consistent induction of SOS response”. For the same compound, the medaka survival rate (E. tarda) was 80%, the MICs (E. cloacae BAA-1143) was 21.8 µM and the adverse effect [5] was “no adverse effect”. For the same compound, the MICs [6] was 21.8 µM, the MICs [7] was 21.8 µM and the MICs (Pseudomonas aeruginosa A) was 34.1 µM. For the same compound, the “RpoE mRNA expression” value (RpoE) was “significantly induced”, the “CpxR mRNA expression” value (CpxR [8]; Peptide A 6.8 μM, 1 hr) was “significantly reduced” and the “CpxR expression induced by ampicillin” value (CpxR [8]; Peptide A+Ampicillin (3.4 μM; 71.5 μM), 1 hour) was “revert the induction of CpxR expression”. For the same compound, the MICs [9] was 5.5 µM, the MICs [10] was 34.1 µM and the MICs [11] was 6.8 µM.
